Patent US20260199369A1, “COMPOUNDS FOR THE TREATMENT OF NEUROMUSCULAR DISORDERS” (NMD PHARMA A/S, priority 2022, published 2026)
Read-outs that look alike come from different tables or passages of the source.

System: isolated rat soleus muscles
Experiment: Measurement of force in an in vitro model: recovery of contractile force of isolated rat soleus nerve-muscle preparation after tubocurarine
Details: 40 min, read-out: Point increase (%): percentage increase of initial force that was restored
Description: The current disclosure relates to compounds that inhibit CIC-1 ion channels and increase muscle excitability and thereby improve muscle function in clinical conditions where muscle activation is failing. Such conditions result in loss of contractile function of skeletal muscle, weakness and excessive fatigue. In this series of experiments the compounds were tested for their ability to restore contractile function of isolated rat muscle when the neuromuscular transmission had been compromised akin to neuromuscular disorders.
Experimentally, soleus muscles from 4-5 wk old rats were isolated with the motor nerve remaining attached. The nerve-muscle preparations were mounted in experimental setups that enabled electrical stimulation of the motor nerve. Stimulation of the motor nerve led to activation of the muscle fibres and ensuing force production that was recorded. The nerve-muscle preparations were also in these experiments incubated in the standard Krebs Ringer (see example 15) and the solution was heated to 30° C. and continuously equilibrated with a mixture of 95% O2 and 5% CO2, pH ~7.4.
After mounting the nerve-muscle preparation in the experimental setup, the contractile function of the muscle was initially assessed under the control conditions. Sub-maximal concentration of tubocurarine (115 nM), an acetylcholine receptor antagonist, was then added to the experimental bath to impose partial inhibition of the ability of the motor nerve to activate the muscle fibres. The experimental condition mimics the failing neuromuscular transmission in a range of neuromuscular disorders. After addition of tubocurarine the contractile force declined over the next 90 minutes to 10-50% of the control force. The test compound was then added to obtain the required compound concentration in the bath and the contractile force recovered was measured. To quantify the ability of the compound to restore force the percentage of the initial force that was restored was determined after 40 mins of compound exposure and the point increase is reported in Tables 3 to 7.

[1] = 50 μM of test compound, tubocurarine 115 nM, after 40 mins of compound exposure
[2] = 25 μM of test compound, tubocurarine 115 nM, after 40 mins of compound exposure
[3] = 100 μM of test compound, tubocurarine 115 nM, after 40 mins of compound exposure

COc1c(Cl)cc2c(c1C(=O)O)N(C)CCO2 [Compound A-10, 7-Chloro-6-methoxy-4-methyl-3,4-dihydro-2H-1,4-benzoxazine-5-carboxylic acid]
activation at 10 µM: 36%

O=C(O)c1c(F)c(Cl)cc2c1NCCO2 [Compound A-11, 7-Chloro-6-fluoro-3,4-dihydro-2H-1,4-benzoxazine-5-carboxylic acid]
activation at 50 µM [1]: 23%

COc1c(Cl)cc2c(c1C(=O)O)OCCCN2C [Compound A-12, 7-Chloro-8-methoxy-5-methyl-2,3,4,5-tetrahydro-1,5-benzoxazepine-9-carboxylic acid]
activation at 50 µM: 54%

COc1c(Cl)cc2c(c1C(=O)O)OCCN2 [Compound A-14, 6-Chloro-7-methoxy-3,4-dihydro-2H-1,4-benzoxazine-8-carboxylic acid]
activation at 25 µM [2]: 28%

O=C(O)c1c(F)c(Cl)cc2c1OCCCN2 [Compound A-15, 7-Chloro-8-fluoro-2,3,4,5-tetrahydro-1,5-benzoxazepine-9-carboxylic acid]
activation at 50 µM: 51%

CCOc1c(Cl)cc2c(c1C(=O)O)OCCCN2C [Compound A-16, 7-chloro-8-ethoxy-5-methyl-2,3,4,5-tetrahydro-1,5-benzoxazepine-9-carboxylic acid]
activation at 50 µM [1]: 49%

O=C(O)c1c(F)c(Cl)cc2c1OCCN2CC1CC1 [Compound A-20, 6-Chloro-4-(cyclopropylmethyl)-7-fluoro-3,4-dihydro-2H-1,4-benzoxazine-8-carboxylic acid]
activation at 50 µM [1]: 22%

O=C(O)c1c(F)c(Cl)cc2c1OCCN2Cc1ccccc1 [Compound A-22, 4-Benzyl-6-chloro-7-fluoro-3,4-dihydro-2H-1,4-benzoxazine-8-carboxylic acid]
activation at 100 µM [3]: 15%

CC(C)Oc1c(Cl)cc2c(c1C(=O)O)OCCN2C [Compound A-24, 6-Chloro-4-methyl-7-(propan-2-yloxy)-3,4-dihydro-2H-1,4-benzoxazine-8-carboxylic acid]
activation at 50 µM: 34%

CSc1c(Cl)cc2c(c1C(=O)O)OCCN2C [Compound A-26, 6-Chloro-4-methyl-7-(methylsulfanyl)-3,4-dihydro-2H-1,4-benzoxazine-8-carboxylic acid]
activation at 25 µM: 28%

COc1c(C)cc2c(c1C(=O)O)OCCN2C [Compound A-31, 7-Methoxy-4,6-dimethyl-3,4-dihydro-2H-1,4-benzoxazine-8-carboxylic acid]
activation at 50 µM: 32%

COc1c(Cl)cc2c(c1C(=O)O)OCCN2C(C)C [Compound A-32, 6-Chloro-7-methoxy-4-(propan-2-yl)-3,4-dihydro-2H-1,4-benzoxazine-8-carboxylic acid]
activation at 50 µM [1]: 39%

COc1c(Cl)cc2c(c1C(=O)O)OCCN2CCc1ccccc1 [Compound A-33, 6-Chloro-7-methoxy-4-(2-phenylethyl)-3,4-dihydro-2H-1,4-benzoxazine-8-carboxylic acid]
activation at 50 µM [1]: 25%

COCC1CN(C)c2cc(Cl)c(OC)c(C(=O)O)c2O1 (stereo not drawn) [Compound A-35, 6-Chloro-7-methoxy-2-(methoxymethyl)-4-methyl-3,4-dihydro-2H-1,4-benzoxazine-8-carboxylic acid]
activation at 50 µM [1]: 21%

COc1c(Cl)cc2c(c1C(=O)O)OC(C)(C)CN2C [Compound A-37, 6-Chloro-7-methoxy-2,2,4-trimethyl-3,4-dihydro-2H-1,4-benzoxazine-8-carboxylic acid]
activation at 50 µM [1]: 51%

COCCN1CCOc2c1cc(Cl)c(F)c2C(=O)O [Compound A-38, 6-Chloro-7-fluoro-4-(2-methoxyethyl)-3,4-dihydro-2H-1,4-benzoxazine-8-carboxylic acid]
activation at 50 µM [1]: 17%

COc1c(Cl)cc2c(c1C(=O)O)OC1(CCC1)CN2C [Compound A-39, 6-Chloro-7-methoxy-4-methyl-3,4-dihydrospiro[1,4-benzoxazine-2,1′-cyclobutane]-8-carboxylic acid]
activation at 50 µM [1]: 35%

COc1c(Cl)cc2c(c1C(=O)O)OCCN2CCCc1ccco1 [Compound A-40, 6-Chloro-4-[3-(furan-2-yl)propyl]-7-methoxy-3,4-dihydro-2H-1,4-benzoxazine-8-carboxylic acid]
activation at 25 µM [2]: 14%

O=C(O)c1c(Cl)c(Cl)cc2c1OCCN2Cc1ccccc1 [Compound A-41, 4-Benzyl-6,7-dichloro-3,4-dihydro-2H-1,4-benzoxazine-8-carboxylic acid]
activation at 100 µM: 28%

COc1c(Cl)cc2c(c1C(=O)O)OCCN2Cc1cccs1 [Compound A-42, 6-chloro-7-methoxy-4-[(thiophen-2-yl)methyl]-3,4-dihydro-2H-1,4-benzoxazine-8-carboxylic acid]
activation at 25 µM [2]: 30%

COc1c(Cl)cc2c(c1C(=O)O)OCCN2Cc1nccs1 [Compound A-43, 6-Chloro-7-methoxy-4-[(1,3-thiazol-2-yl)methyl]-3,4-dihydro-2H-1,4-benzoxazine-8-carboxylic acid]
activation at 100 µM [3]: 14%

COc1c(Cl)c(F)c2c(c1C(=O)O)OCCN2C [Compound A-44, 6-Chloro-5-fluoro-7-methoxy-4-methyl-3,4-dihydro-2H-1,4-benzoxazine-8-carboxylic acid]
activation at 25 µM: 35%

O=C(O)c1c(F)c(Cl)cc2c1N(Cc1ccccc1)CCO2 [Compound A-45, 4-Benzyl-7-chloro-6-fluoro-3,4-dihydro-2H-1,4-benzoxazine-5-carboxylic acid]
activation at 10 µM: 43%

O=C(O)c1c(F)c(Cl)cc2c1OCCN2CC1CCC1 [Compound A-46, 6-Chloro-4-(cyclobutylmethyl)-7-fluoro-3,4-dihydro-2H-1,4-benzoxazine-8-carboxylic acid]
activation at 25 µM [2]: 8%

COc1c(Cl)cc2c(c1C(=O)O)OCCN2CCCc1nccs1 [Compound A-47, 6-Chloro-7-methoxy-4-[3-(1,3-thiazol-2-yl)propyl]-3,4-dihydro-2H-1,4-benzoxazine-8-carboxylic acid]
activation at 100 µM [3]: 14%

Cc1c(Cl)cc2c(c1C(=O)O)OCCN2C [Compound A-48, 6-chloro-4,7-dimethyl-3,4-dihydro-2H-1,4-benzoxazine-8-carboxylic acid]
activation at 25 µM: 23%

COc1c(Cl)cc2c(c1C(=O)O)OCCN2Cc1ccccc1 [Compound A-52, 4-Benzyl-6-chloro-7-methoxy-3,4-dihydro-2H-1,4-benzoxazine-8-carboxylic acid]
activation at 25 µM: 14%

COc1c(Cl)cc2c(c1C(=O)O)OCCN2CCc1cc(F)cc(F)c1 [Compound A-53, 6-Chloro-4-[2-(3,5-difluorophenyl)ethyl]-7-methoxy-3,4-dihydro-2H-1,4-benzoxazine-8-carboxylic acid]
activation at 25 µM [2]: 30%

CCCN1CCOc2cc(Cl)c(F)c(C(=O)O)c21 [Compound A-56, 7-Chloro-6-fluoro-4-propyl-3,4-dihydro-2H-1,4-benzoxazine-5-carboxylic acid]
activation at 35 µM (35 μM of test compound, tubocurarine 115 nM, after 40 mins of compound exposure): 48%

Cc1ccccc1CN1CCOc2cc(Cl)c(F)c(C(=O)O)c21 [Compound A-62, 7-Chloro-6-fluoro-4-[(o-tolyl)methyl]-3,4-dihydro-2H-1,4-benzoxazine-5-carboxylic acid]
activation at 10 µM (10 μM of test compound, tubocurarine 115 nM, after 40 mins of compound exposure): 28%
